Experimental data published in PubChem BioAssay AID2060889 (Molecular Pharmacology Branch, DTP, NCI, 2025).

Test system: LG0567-F671-PDC complex spheroids viability
Assay: Anticancer human tumor LG0567-F671-PDC patient-derived lung adenocarcinoma cell line growth inhibition [RAS]
Conditions: for IC50: curve of first compound; for viability, T/C: stronger effect = lower value; active = viability on the fitted dose curve at most 10% of control; inactive = the rest
Text: RAS pathway inhibitors in Combinations in Complex Spheroids
A high-throughput screen of multi-cell type tumor spheroids was designed to identify active combinations of RAS pathway inhibitors and targeted small molecules. Complex spheroids include a stromal component modeled by human endothelial cells (HUVEC) and fibroblasts modeled by human mesenchymal stem cells (MSCs). The concentration ranges selected for each drug and investigational agent were based upon clinically achievable concentrations if the clinical Cmax of the agent was known.
Compounds. The drugs and investigational agents: abemaciclib (NSC768073), cobimetinib (NSC768068), divarasib (GDC6063, NSC841802), docetaxel (NSC628503), GDC-1971 (RLY-1971, NSC841576), gemcitabine (NSC613327), inavolisib (NSC800729), ipatasertib (NSC767898), KB-0742 (NSC834161), MRTX-1133 (NSC836407), osimertinib (NSC779217), RMC-4630 (NSC839698), RMC-6236 (NSC851965), RMC-6291 (NSC852671), Ro-3306 (NSC812927), sapanisertib (NSC764658), SN-38 (NSC673596), staurosporine (NSC755774), SY5609 (NSC837396), and tovorafenib (DAY101, NSC766906), were obtained from the National Cancer Institute (NCI) Developmental Therapeutics Program Chemical Repository. The FDA-approved anticancer drug set is available from the NCI Developmental Therapeutics Program. […] The stock solutions were prepared in dimethyl sulfoxide (DMSO, Sigma-Aldrich, St. Louis, MO, cat. D2650) at 800-fold the tested concentration and stored at -70 degrees C prior to their use. All drugs and investigational agents were tested over a range starting from a high concentration at or near the clinical Cmax and decreasing in half-log increments. If the clinical Cmax for an agent had not been determined, the highest concentration tested was 10 microM.
Cell Culture. All cells were maintained in an incubator at 37 degrees C and 5% CO2 with 95% humidity. The PDC lines were cultured according to standard operating procedures established by the NCI PDMR. All PDCs were thawed and cultured in Matrigel-coated flasks prepared with a working solution of 1X Ham's F-12 nutrient mix, without supplementation (Invitrogen, Waltham, MA, cat. 11765054), 100 U/mL penicillin-streptomycin (Invitrogen, cat. 15140122), and 2.5% Matrigel (Corning Inc., Corning, NY, cat. 354248) for the first three passages. The 362531-283-R-J2-PDC and 782815-120-R-J1-PDC lines were cultured in 6C/Colon 1B media, which includes advanced DMEM/F-12 (Thermo Fisher Scientific, cat. 12634028), 10 mM HEPES (Thermo Fisher Scientific, cat. 15630080), 1X GlutaMAX supplement (Thermo Fisher Scientific, cat. 35050061), 0.1 mg/mL primocin (InvivoGen, San Diego, CA, cat. ant-pm-2), 10% defined fetal bovine serum, heat inactivated (HyClone Laboratories Inc., Logan, UT, cat. SH30070.03HI), 50% L-WRN conditioned media (ATCC, cat. CRL-3276), 1.25 mM N-Acetyl-L-cysteine (Sigma-Aldrich, cat. A9165), 10 mM nicotinamide (Sigma-Aldrich, cat. N0636), 1X B-27 supplement (Thermo Fisher Scientific, cat. 17504044), 1X N-2 supplement (Thermo Fisher Scientific, cat. 17502048), 50 ng/mL human EGF (Thermo Fisher Scientific, cat. PHG0311), and 10 microM Y-27632 dihydrochloride (Tocris Bioscience, cat. 1254). The K12877-001-R-J1-PDC line was cultured in 6I media, which includes all 6C/Colon 1B media plus 10 ng/mL human FGF-10 (PeproTech, cat. 100-26), 1 ng/mL human FGF-2 (PeproTech, cat. 100-18B), 1 µM prostaglandin E2 (Tocris Bioscience, cat. 2296), […] hydrocortisone (Sigma-Aldrich, cat. H4001), and […] bovine insulin (Sigma-Aldrich, cat. I6634). The K86415-001-R-J1-PDC line was cultured in 6D media, which includes all 6C/Colon 1B media components minus the L-WRN conditioned media. The 485176-168-R4-J1-PDC was cultured in PANC media, which includes all 6C/Colon 1B media plus 100 ng/mL human FGF-10 (PeproTech, cat. 100-26), 500 nM SB-431542 (Selleckchem, cat. S1067), and 10 nM gastrin (Tocris Bioscience, cat. 3006). […]

[1] = second compound 0.000949 µM, first compound 0.0316 µM
[2] = second compound 0.000949 µM, first compound 0.1 µM
[3] = second compound 0.000949 µM, first compound 0.316 µM
[4] = second compound 0.000949 µM, first compound 1 µM
[5] = second compound 0.003 µM, first compound 0.0316 µM
[6] = second compound 0.003 µM, first compound 0.1 µM
[7] = second compound 0.003 µM, first compound 0.316 µM
[8] = second compound 0.003 µM, first compound 1 µM
[9] = second compound 0.00949 µM, first compound 0.0316 µM
[10] = second compound 0.00949 µM, first compound 0.1 µM
[11] = second compound 0.00949 µM, first compound 0.316 µM
[12] = second compound 0.00949 µM, first compound 1 µM
[13] = second compound 0.03 µM, first compound 0.0316 µM
[14] = second compound 0.03 µM, first compound 0.1 µM
[15] = second compound 0.03 µM, first compound 0.316 µM
[16] = second compound 0.03 µM, first compound 1 µM
[17] = second compound 0.0949 µM, first compound 0.0316 µM
[18] = second compound 0.0949 µM, first compound 0.1 µM
[19] = second compound 0.0949 µM, first compound 0.316 µM
[20] = second compound 0.0949 µM, first compound 1 µM
[21] = second compound 0.3 µM, first compound 0.0316 µM
[22] = second compound 0.3 µM, first compound 0.1 µM
[23] = second compound 0.3 µM, first compound 0.316 µM
[24] = second compound 0.3 µM, first compound 1 µM
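Note: spheroids exposed to compound for seven days before readout.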
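Throughout, for IC50: luminescence signal used as a proxy for viable cells.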

O=C(c1ccc(F)c(F)c1Nc1ccc(I)cc1F)N1CC(O)([C@@H]2CCCCN2)C1 + CCn1c(-c2cccnc2C(C)OC)c2c3cc(ccc31)N1CCOC(CC(NC(=O)C(C(C)C)N(C)C(=O)C3(F)CCN(C(=O)C#CC(C)(C)N(C)C)CC3)C(=O)N3CCCC(N3)C(=O)OCC(C)(C)C2)C1
< 3.16 nM: IC50 (second compound 0.000949 µM) | IC50 (second compound 0.003 µM) | IC50 (second compound 0.00949 µM) | IC50 (second compound 0.03 µM) | IC50 (second compound 0.0949 µM) | IC50 (second compound 0.3 µM)
active: viability, T/C [1] 9.69% | viability, T/C [2] 6.79% | viability, T/C [3] 3.71% | viability, T/C [4] 1.41% | viability, T/C [5] 9.13% | viability, T/C [6] 7.29% | viability, T/C [7] 3.35% | viability, T/C [8] 1.31% | viability, T/C [9] 7.73% | viability, T/C [10] 7.78% | viability, T/C [11] 3.51% | viability, T/C [12] 1.48% | viability, T/C (second compound 0.03 µM, first compound 0.01 µM) 10.1% | viability, T/C [13] 7.96% | viability, T/C [14] 5.76% | viability, T/C [15] 3.19% | viability, T/C [16] 1% | viability, T/C (second compound 0.0949 µM, first compound 0.00316 µM) 8.93% | viability, T/C (second compound 0.0949 µM, first compound 0.01 µM) 7.87% | viability, T/C [17] 7.13% | viability, T/C [18] 4.53% | viability, T/C [19] 2.24% | viability, T/C [20] 0.97% | viability, T/C (second compound 0.3 µM, first compound 0.00316 µM) 7.33% | viability, T/C (second compound 0.3 µM, first compound 0.01 µM) 7.35% | viability, T/C [21] 5.27% | viability, T/C [22] 3.14% | viability, T/C [23] 1.96% | viability, T/C [24] 0.65%
inactive: viability, T/C (second compound 0.000949 µM, first compound 0.00316 µM) 13.4% | viability, T/C (second compound 0.000949 µM, first compound 0.01 µM) 11.5% | viability, T/C (second compound 0.003 µM, first compound 0.00316 µM) 12.6% | viability, T/C (second compound 0.003 µM, first compound 0.01 µM) 11.1% | viability, T/C (second compound 0.00949 µM, first compound 0.00316 µM) 13.7% | viability, T/C (second compound 0.00949 µM, first compound 0.01 µM) 11.1% | viability, T/C (second compound 0.03 µM, first compound 0.00316 µM) 10.9%

C[C@@H](NC(=O)c1ncnc(N)c1Cl)c1ncc(C(=O)Nc2cc(C(F)(F)F)c(Cl)cn2)s1 + CCn1c(-c2cc(N3CCN(C)CC3)cnc2C(C)OC)c2c3cc(ccc31)-c1csc(n1)CC(NC(=O)C1CC1C)C(=O)N1CCCC(N1)C(=O)OCC(C)(C)C2
< 31.6 nM: IC50 (second compound 0.000949 µM) | IC50 (second compound 0.003 µM) | IC50 (second compound 0.00949 µM) | IC50 (second compound 0.03 µM) | IC50 (second compound 0.0949 µM) | IC50 (second compound 0.3 µM)
inactive: viability, T/C [1] 30.9% | viability, T/C [2] 37.5% | viability, T/C [3] 43.4% | viability, T/C [4] 39.1% | viability, T/C (second compound 0.000949 µM, first compound 3.16 µM) 40.3% | viability, T/C (second compound 0.000949 µM, first compound 10 µM) 35.3% | viability, T/C [5] 19.7% | viability, T/C [6] 18.3% | viability, T/C [7] 19.9% | viability, T/C [8] 22.7% | viability, T/C (second compound 0.003 µM, first compound 3.16 µM) 24.5% | viability, T/C (second compound 0.003 µM, first compound 10 µM) 26.4% | viability, T/C [9] 7.34% | viability, T/C [10] 8.73% | viability, T/C [11] 10.4% | viability, T/C [12] 11.1% | viability, T/C (second compound 0.00949 µM, first compound 3.16 µM) 13.5% | viability, T/C (second compound 0.00949 µM, first compound 10 µM) 12.6%
active: viability, T/C [13] 5.32% | viability, T/C [14] 5.26% | viability, T/C [15] 5.82% | viability, T/C [16] 8.15% | viability, T/C (second compound 0.03 µM, first compound 3.16 µM) 8.79% | viability, T/C (second compound 0.03 µM, first compound 10 µM) 9.05% | viability, T/C [17] 4.43% | viability, T/C [18] 3.63% | viability, T/C [19] 3.94% | viability, T/C [20] 5.56% | viability, T/C (second compound 0.0949 µM, first compound 3.16 µM) 5.9% | viability, T/C (second compound 0.0949 µM, first compound 10 µM) 7.14% | viability, T/C [21] 3.16% | viability, T/C [22] 4.04% | viability, T/C [23] 3.86% | viability, T/C [24] 4.35% | viability, T/C (second compound 0.3 µM, first compound 3.16 µM) 5.96% | viability, T/C (second compound 0.3 µM, first compound 10 µM) 5.33%

CC(C)n1nc(-c2ccc3oc(N)nc3c2)c2c(N)ncnc21
inactive: viability, T/C (compound 0.000316 µM) 90.9% [middle of 4 runs] | viability, T/C (compound 0.001 µM) 88.4% [middle of 4 runs] | viability, T/C (compound 0.00316 µM) 86.1% [middle of 4 runs] | viability, T/C (compound 0.01 µM) 75.3% [middle of 4 runs] | viability, T/C (compound 0.0316 µM) 56.1% [middle of 4 runs]
